Assay results as given in patent US20060111305A1, “Metabolites of certain [1,4]diazepino[6,7,1-ij]quinoline derivatives and methods of preparation and use thereof” (Wyeth, priority 2004, published 2006).
Values joined by “and” are separate entries in the source; they are usually repeats but may differ in a detail not shown here. Identical values can stand only once.

How the values were obtained:
[1] = Rat blood and plasma radioactivity concentrations after single oral 5 mg/kg [14C]DCDQ; assay type: in vivo, Sprague-Dawley rats; settings: for Blood concentration of radioactivity, individuals / Plasma concentration of radioactivity, individuals: 5 mg/kg
Protocol: Dose preparation, animal dosing, and specimen collection were performed at Wyeth Research, Collegeville, Pa. The dose vehicle contained 2% (w/w) Tween 80 and 0.5% methylcellulose in water. […] Male rats weighing from 318 to 345 grams and female rats weighing from 227 to 255 grams at the time of dosing were purchased from Charles River Laboratories, Wilmington, Mass. Non-fasted rats were given a single 5 mg/kg (˜300 μCi/kg) dose of DCDQ at a volume of 2.5 mL/kg via intragastric gavage. Animals were provided Purina rat chow and water ad libitum, and were kept individually in metabolism cages. Male rats were sacrificed at 2, 4, 8 and 24 hour after dose administration. Female rats were sacrificed at 2 and 8 hour after dose administration. At sacrifice, blood samples were collected by cardiac puncture into tubes containing EDTA as the anticoagulant and placing them on ice. Aliquots of 50 μL were removed for combustion and determination of radioactivity content. Plasma was immediately obtained from the remaining blood by centrifugation at 4° C. Brains were excised after perfusion with 50 mL of chilled sterile saline. Urine samples were collected on dry ice at intervals of 0-8 and 8-24 hour post-dosing. Feces were collected at intervals of 0-8 and 8-24 hr post-dosing at room temperature and were homogenized as described previously. The biological specimens and aliquots of the dosing solution at pre- and post-dose were stored at approximately −70° C. until analyzed. Plasma (20 μL) and urine (50 μL) aliquots were analyzed for radioactivity concentrations. Radioactivity determinations of dose, plasma and urine were made with a Tri-Carb Model 3100 TR/LL liquid scintillation counter (LSC) (Perkin Elmer) using 10 mL of Ultima Gold as the scintillation fluid. […] Blood aliquots (50 μL), brain homogenates (0.1 gram) and fecal homogenates (0.2 gram) were placed on Combusto-cones with Combusto-pads and combusted. A model 307 Tri-Carb Sample Oxidizer, equipped with an Oximate-80 Robotic Automatic Sampler (Perkin Elmer), was used for combustion. The liberated ^14CO2 was trapped with Carbo-Sorb E carbon dioxide absorber, mixed with PermaFluor® E+ liquid scintillation cocktail, and counted in a Tri-Carb Model 3100 TR/LL liquid scintillation counter (Perkin Elmer). The oxidation efficiency of the oxidizer was 98.2%.

[2] = system: UGT (UDPGA-dependent glucuronidation); assay: Incubation of [14C]DCDQ with human liver microsomes (Km values, metabolite formation); assay type: in vitro ADME; settings: pH 7.4; 0.5 mg/mL human liver microsomes, [14C]DCDQ 0.5-100 μM, UDPGA, 10 min
Protocol: [^14C]DCDQ was mixed with non-radiolabeled DCDQ (1:3 or 1:5) in the incubations. Microsomal incubations consisted of [^14C]DCDQ, magnesium chloride (10 mM) and liver microsomes incubated in 0.5 mL of 0.1 M potassium phosphate buffer, pH 7.4. [^14C]DCDQ (20 μL) in water was added to the incubation tubes containing buffer, magnesium chloride solution and microsomes. After mixing, the tubes were pre-incubated for 2 minutes in a shaking water bath at 37° C. The reactions were initiated by the addition of UDPGA or the NADPH regenerating system. UDPGA was added to incubations as a 50 μL aliquot of a 20 mM solution in water, to give a final concentration of 2 mM. An NADPH regenerating system (30 μL) was added to incubations to evaluate CYP450-mediated metabolism. The NADPH regenerating system consisted of glucose-6-phosphate (2 mg/mL), glucose-6-phosphate dehydrogenase (0.8 units/mL) and NADP^+ (2 mg/mL). Control incubations were conducted under the same conditions, but without the NADPH generating system, UDPGA or microsomes. All incubations were performed in duplicate. Incubations were stopped by the addition of 0.5 mL ice-cold methanol. Samples were vortex-mixed. Denatured proteins were separated by centrifugation at 4300 rpm and 4° C. for 10 minutes (Model T21 super centrifuge, Sorvall). The protein pellets were extracted with 0.5 mL of methanol. The supernatant was combined for each sample, mixed and evaporated to a volume of about 0.3 mL under a nitrogen stream in a Zymark TurboVap LV evaporator (Caliper Life Science, Hopkinton, Mass.). The concentrated sample was centrifuged and aliquots were radioassayed and analyzed by HPLC. This method recovered an average of 92.1% of the radioactivity from the reaction mixture.
Initial rate conditions were determined for DCDQ metabolism in incubations with human liver microsomes in the presence of NADPH or UDPGA. Incubations for the time course study contained 20 μM of [^14C]DCDQ and 0.5 mg/mL of microsomal proteins, and were incubated at 37° C. with mild shaking for 0, 5, 10, 20, 30, 40, 50 and 60 minutes. The protein dependence study was conducted with 20 μM of [^14C]DCDQ incubated for 20 minutes with 0, 0.1, 0.25, 0.5, 0.75 and 1.0 mg/mL of microsomal proteins.
The Km values were determined with 0.5 mg/mL of human liver microsomes incubated with [^14C]DCDQ for 20 minutes with the NADPH regenerating system or for 10 minutes with UDPGA. [^14C]DCDQ concentrations used were 0.5,1, 5, 10, 25, 50, 75 and 100 μM.
To evaluate species differences in cytochrome P450- and UGT-mediated metabolism, [^14C]DCDQ was incubated for 20 minutes with 0.5 mg/mL liver microsomal proteins from mice, rats, dogs or humans in the presence of the NADPH regenerating system or UDPGA. The assay conditions were the same as described above, and DCDQ concentrations were 12 μM and 56 μM for cytochrome P450- and UGT-mediated metabolism, respectively.
A Waters model 2690 HPLC system (Waters Corp., Milford, Mass.) with a built-in autosampler was used for analysis. Separations were accomplished on a Phenomenex Luna C18(2) column (2×150 mm, 5 μm) (Phenomenex, Torrance, Calif.) coupled with a filter (4×2 mm) cartridge. A variable wavelength UV detector set to monitor 250 nm and Flo-One β Model A525 radioactivity flow detector (Perkin Elmer) with a 250 μL LQTR flow cell were used for data acquisition. The flow rate of Ultima Flow M scintillation fluid was 1 mL/min, providing a mixing ratio of scintillation cocktail to mobile phase of 5:1. The sample chamber in the autosampler was maintained at 4° C., while the column was at ambient temperature of about 20° C. The mobile phase consisted of 10 mM ammonium acetate, pH 4.5 (A) and methanol (B) and was delivered at 0.2 mL/min. The linear gradient conditions were as follows: […]

In the case of c1cc2c3c(c1)[C@H]1CCC[C@H]1CN3CCNC2 [[^14C]DCDQ], the “Blood concentration of radioactivity, Mean ± SD” value (“Blood concentration … Mean ± SD” for short) ([1]; female rats, 2 hr) is reported as 697 ± 219 ng equivalents/mL, the “Plasma concentration of radioactivity, Mean ± SD” value (“Plasma concentration … Mean ± SD” for short) ([1]; female rats, 2 hr) is reported as 658 ± 189 ng equivalents/mL and the “Blood concentration of radioactivity, individuals” value (from here on “Blood concentration … individuals”) ([1]; female rats, 2 hr) is reported as 661 ng equivalents/mL and 932 ng equivalents/mL and 499 ng equivalents/mL. The “Plasma concentration of radioactivity, individuals” value (shortened to “Plasma concentration … individuals”) ([1]; female rats, 2 hr) was 635 ng equivalents/mL and 857 ng equivalents/mL and 481 ng equivalents/mL, the “Blood concentration … Mean ± SD” value ([1]; female rats, 8 hr) was 307 ± 68.4 ng equivalents/mL and the “Plasma concentration … Mean ± SD” value ([1]; female rats, 8 hr) was 338 ± 60.7 ng equivalents/mL. The “Blood concentration … individuals” value ([1]; female rats, 8 hr) was 413 ng equivalents/mL and 292 ng equivalents/mL and 406 ng equivalents/mL, the “Plasma concentration … individuals” value ([1]; female rats, 8 hr) was 362 ng equivalents/mL and 269 ng equivalents/mL and 383 ng equivalents/mL and the “Blood concentration … Mean ± SD” value ([1]; male rats, 2 hr) was 706 ± 158 ng equivalents/mL. For the same compound, the “Plasma concentration … Mean ± SD” value ([1]; male rats, 2 hr) was 632 ± 144 ng equivalents/mL, the “Blood concentration … individuals” value ([1]; male rats, 2 hr) was 606 ng equivalents/mL and 624 ng equivalents/mL and 888 ng equivalents/mL and the “Plasma concentration … individuals” value ([1]; male rats, 2 hr) was 567 ng equivalents/mL and 531 ng equivalents/mL and 797 ng equivalents/mL. For the same compound, the “Blood concentration … Mean ± SD” value ([1]; male rats, 4 hr) was 704 ± 18.7 ng equivalents/mL, the “Plasma concentration … Mean ± SD” value ([1]; male rats, 4 hr) was 659 ± 16.5 ng equivalents/mL and the “Blood concentration … individuals” value ([1]; male rats, 4 hr) was 698 ng equivalents/mL and 725 ng equivalents/mL and 689 ng equivalents/mL. The “Plasma concentration … individuals” value ([1]; male rats, 4 hr) was 678 ng equivalents/mL and 652 ng equivalents/mL and 647 ng equivalents/mL, the “Blood concentration … Mean ± SD” value ([1]; male rats, 8 hr) was 525 ± 45.3 ng equivalents/mL and the “Plasma concentration … Mean ± SD” value ([1]; male rats, 8 hr) was 465 ± 43.1 ng equivalents/mL. The “Blood concentration … individuals” value ([1]; male rats, 8 hr) was 538 ng equivalents/mL and 475 ng equivalents/mL and 562 ng equivalents/mL, the “Plasma concentration … individuals” value ([1]; male rats, 8 hr) was 487 ng equivalents/mL and 415 ng equivalents/mL and 492 ng equivalents/mL and the “Blood concentration … Mean ± SD” value ([1]; male rats, 24 hr) was 68.0 ± 10.0 ng equivalents/mL. For the same compound, the “Plasma concentration … Mean ± SD” value ([1]; male rats, 24 hr) was 46.9 ± 8.30 ng equivalents/mL, the “Blood concentration … individuals” value ([1]; male rats, 24 hr) was 66.5 ng equivalents/mL and 58.9 ng equivalents/mL and 78.7 ng equivalents/mL and the “Plasma concentration … individuals” value ([1]; male rats, 24 hr) was 50.5 ng equivalents/mL and 37.4 ng equivalents/mL and 52.8 ng equivalents/mL.

Work on O=C(O)[C@H]1O[C@@H](OC(=O)N2CCN3C[C@@H]4CCC[C@@H]4c4cccc(c43)C2)[C@H](O)[C@@H](O)[C@@H]1O [Metabolite M6, carbamoyl glucuronide of DCDQ] yielded a Km at 10 min [2] of 56.1 µM.
